Laboratory results taken from US7202280B2, “Methods for the treatment and prevention of pancreatitis and for induction of liver regeneration” (priority 2002, dated 2007).

Tested on: syngenic and metallothionein-SSAT mice
Test: Hepatic, pancreatic and renal polyamine concentration in syngenic and metallothionein-SSAT mice after analogue
Format: in vivo, mouse
Conditions: 24 h
Procedure: α-methylspermidine, Bis-α-methylspermine and α-methylspermine were administered in saline. […] The data are expressed as means ±S.D. For statistical analysis, the two-tailed Student's t test was used.

SMILES: CC(N)CCNCCCCN (stereo not drawn) [α-methylspermidine, 1-methylspermidine]
- renal Spermidine (Sg mice, 500 mg/kg): 181.32 ± 28.81 pmoles/mg tissue wet weight
- renal Spermine (Sg mice, 500 mg/kg): 458.07 ± 107.68 pmoles/mg tissue wet weight
- renal α-Methylspermidine (Sg mice, 500 mg/kg): 1078.16 pmoles/mg tissue wet weight
- hepatic N^1-Acetyl-spermidine (Tg mice, 50 mg/kg): 245.16 pmoles/mg tissue wet weight
- hepatic Putrescine (Tg mice, 50 mg/kg): 1055.38 pmoles/mg tissue wet weight
- hepatic Spermidine (Tg mice, 50 mg/kg): 329.57 pmoles/mg tissue wet weight
- hepatic Spermine (Tg mice, 50 mg/kg): 103.26 ± 188.21 pmoles/mg tissue wet weight
- hepatic α-Methyl-spermidine (Tg mice, 50 mg/kg): 582.62 pmoles/mg tissue wet weight
- pancreatic N^1-Acetyl-spermidine (Tg mice, 50 mg/kg): 204.43 pmoles/mg tissue wet weight
- pancreatic Putrescine (Tg mice, 50 mg/kg): 4968.25 pmoles/mg tissue wet weight
- pancreatic Spermidine (Tg mice, 50 mg/kg): 1316.94 ± 248.44 pmoles/mg tissue wet weight
- pancreatic Spermine (Tg mice, 50 mg/kg): 224.17 pmoles/mg tissue wet weight
- pancreatic α-Methyl-spermidine (Tg mice, 50 mg/kg): 627.87 pmoles/mg tissue wet weight
- renal N^1-Acetylspermidine (Tg mice, 50 mg/kg): 49.14 pmoles/mg tissue wet weight
- renal Putrescine (Tg mice, 50 mg/kg): 179.10 pmoles/mg tissue wet weight
- renal Spermidine (Tg mice, 50 mg/kg): 231.02 ± 15.59 pmoles/mg tissue wet weight
- renal Spermine (Tg mice, 50 mg/kg): 896.89 ± 25.61 pmoles/mg tissue wet weight
- renal α-Methylspermidine (Tg mice, 50 mg/kg): 133.67 pmoles/mg tissue wet weight
- hepatic N^1-Acetyl-spermidine (Tg mice, 100 mg/kg): 293.66 pmoles/mg tissue wet weight
- hepatic Putrescine (Tg mice, 100 mg/kg): 834.88 pmoles/mg tissue wet weight
- hepatic Spermidine (Tg mice, 100 mg/kg): 286.11 pmoles/mg tissue wet weight
- hepatic Spermine (Tg mice, 100 mg/kg): 97.52 ± 52.21 pmoles/mg tissue wet weight
- hepatic α-Methyl-spermidine (Tg mice, 100 mg/kg): 676.44 pmoles/mg tissue wet weight
- pancreatic N^1-Acetyl-spermidine (Tg mice, 100 mg/kg): 656.51 pmoles/mg tissue wet weight
- pancreatic Putrescine (Tg mice, 100 mg/kg): 4467.46 pmoles/mg tissue wet weight
- pancreatic Spermidine (Tg mice, 100 mg/kg): 1539.88 ± 351.44 pmoles/mg tissue wet weight
- pancreatic Spermine (Tg mice, 100 mg/kg): 211.73 pmoles/mg tissue wet weight
- pancreatic α-Methyl-spermidine (Tg mice, 100 mg/kg): 731.63 pmoles/mg tissue wet weight
- renal N^1-Acetylspermidine (Tg mice, 100 mg/kg): 65.00 pmoles/mg tissue wet weight
- renal Putrescine (Tg mice, 100 mg/kg): 133.86 pmoles/mg tissue wet weight
- renal Spermidine (Tg mice, 100 mg/kg): 212.40 ± 10.9 pmoles/mg tissue wet weight
- renal Spermine (Tg mice, 100 mg/kg): 840.58 ± 67.32 pmoles/mg tissue wet weight
- renal α-Methylspermidine (Tg mice, 100 mg/kg): 136.61 pmoles/mg tissue wet weight
- hepatic N^1-Acetyl-spermidine (Tg mice, 150 mg/kg): 230.96 pmoles/mg tissue wet weight
- hepatic Putrescine (Tg mice, 150 mg/kg): 603.18 pmoles/mg tissue wet weight
- hepatic Spermidine (Tg mice, 150 mg/kg): 260.13 pmoles/mg tissue wet weight
- hepatic Spermine (Tg mice, 150 mg/kg): 79.41 ± 25.11 pmoles/mg tissue wet weight
- hepatic α-Methyl-spermidine (Tg mice, 150 mg/kg): 1206.94 pmoles/mg tissue wet weight
- pancreatic N^1-Acetyl-spermidine (Tg mice, 150 mg/kg): 185.50 pmoles/mg tissue wet weight
- pancreatic Putrescine (Tg mice, 150 mg/kg): 4457.91 pmoles/mg tissue wet weight
- pancreatic Spermidine (Tg mice, 150 mg/kg): 1244.49 ± 565.07 pmoles/mg tissue wet weight
- pancreatic Spermine (Tg mice, 150 mg/kg): 213.86 pmoles/mg tissue wet weight
- pancreatic α-Methyl-spermidine (Tg mice, 150 mg/kg): 942.74 pmoles/mg tissue wet weight
- renal N^1-Acetylspermidine (Tg mice, 150 mg/kg): 41.78 pmoles/mg tissue wet weight
- renal Putrescine (Tg mice, 150 mg/kg): 119.47 pmoles/mg tissue wet weight
- renal Spermidine (Tg mice, 150 mg/kg): 201.24 ± 19.1 pmoles/mg tissue wet weight
- renal Spermine (Tg mice, 150 mg/kg): 721.39 ± 64.84 pmoles/mg tissue wet weight
- renal α-Methylspermidine (Tg mice, 150 mg/kg): 148.99 pmoles/mg tissue wet weight
- hepatic N^1-Acetyl-spermidine (Tg mice, 250 mg/kg): 211.54 pmoles/mg tissue wet weight
- hepatic Putrescine (Tg mice, 250 mg/kg): 444.97 pmoles/mg tissue wet weight
- hepatic Spermidine (Tg mice, 250 mg/kg): 199.53 pmoles/mg tissue wet weight
- hepatic Spermine (Tg mice, 250 mg/kg): 36.38 ± 9.89 pmoles/mg tissue wet weight
- hepatic α-Methyl-spermidine (Tg mice, 250 mg/kg): 1293.76 pmoles/mg tissue wet weight
- pancreatic N^1-Acetyl-spermidine (Tg mice, 250 mg/kg): 137.01 pmoles/mg tissue wet weight
- pancreatic Putrescine (Tg mice, 250 mg/kg): 4637.87 pmoles/mg tissue wet weight
- pancreatic Spermidine (Tg mice, 250 mg/kg): 967.83 ± 396.04 pmoles/mg tissue wet weight
- pancreatic Spermine (Tg mice, 250 mg/kg): 157.23 pmoles/mg tissue wet weight
- pancreatic α-Methyl-spermidine (Tg mice, 250 mg/kg): 1166.56 pmoles/mg tissue wet weight
- renal N^1-Acetylspermidine (Tg mice, 250 mg/kg): 48.47 pmoles/mg tissue wet weight
- renal Putrescine (Tg mice, 250 mg/kg): 103.63 pmoles/mg tissue wet weight
- renal Spermidine (Tg mice, 250 mg/kg): 185.82 ± 18.56 pmoles/mg tissue wet weight
- renal Spermine (Tg mice, 250 mg/kg): 597.01 ± 91.36 pmoles/mg tissue wet weight
- renal α-Methylspermidine (Tg mice, 250 mg/kg): 169.73 pmoles/mg tissue wet weight
- hepatic N^1-Acetyl-spermidine (Tg mice, 375 mg/kg): 252.33 pmoles/mg tissue wet weight
- hepatic Putrescine (Tg mice, 375 mg/kg): 861.39 pmoles/mg tissue wet weight
- hepatic Spermidine (Tg mice, 375 mg/kg): 168.25 pmoles/mg tissue wet weight
- hepatic Spermine (Tg mice, 375 mg/kg): 41.95 ± 8.02 pmoles/mg tissue wet weight
- hepatic α-Methyl-spermidine (Tg mice, 375 mg/kg): 1012.46 pmoles/mg tissue wet weight
- pancreatic N^1-Acetyl-spermidine (Tg mice, 375 mg/kg): 95.41 pmoles/mg tissue wet weight
- pancreatic Putrescine (Tg mice, 375 mg/kg): 4826.59 pmoles/mg tissue wet weight
- pancreatic Spermidine (Tg mice, 375 mg/kg): 1002.33 ± 365.29 pmoles/mg tissue wet weight
- pancreatic Spermine (Tg mice, 375 mg/kg): 122.49 pmoles/mg tissue wet weight
- pancreatic α-Methyl-spermidine (Tg mice, 375 mg/kg): 1378.62 pmoles/mg tissue wet weight
- renal N^1-Acetylspermidine (Tg mice, 375 mg/kg): 44.65 pmoles/mg tissue wet weight
- renal Putrescine (Tg mice, 375 mg/kg): 127.41 pmoles/mg tissue wet weight
- renal Spermidine (Tg mice, 375 mg/kg): 173.73 ± 13.69 pmoles/mg tissue wet weight
- renal Spermine (Tg mice, 375 mg/kg): 580.26 ± 51.87 pmoles/mg tissue wet weight
- renal α-Methylspermidine (Tg mice, 375 mg/kg): 192.90 pmoles/mg tissue wet weight
